Test results from patent US12246012B2, “Method for treating nervous system injuries using boldine and derivatives thereof” (United States Government as Represented by the Department …, priority 2020, dated 2025).

Legend:
caspase-1 mRNA = experiment: Hippocampus mRNA levels by qPCR after contusion SCI; assay type: in vivo, mouse; conditions: contusion SCI mice, 13 dpi, N=3
Procedure: (§1) FIGS. 2A-D show plots of mRNA levels of Cx43 (2A), NLRP3 (2B), ASC (2C), and caspase-1 (2D) in the hippocampus of sham mice and those having contusion spinal cord injury (SCI) with and without boldine treatment. mRNA levels in the hippocampus were determined by qPCR at 13 dpi using tissues from mice that underwent laminectomy (Sham) or moderate (50 kdyne) contusion SCI. ((*p<0.05 by one-way ANOVA, N=3 per group).
(§2) In rats, a spinal cord injury (SCI) can result in cognitive deficits that are associated with activation in brain regions linked to pain processing and cognition of microglia and astrocytes as well as associated with upregulation of a gene involved in inflammation (Wu et al. 2013; Wu et al. 2014). Such changes may drive central pain in neuropathic pain syndromes. To determine whether boldine mitigates such changes, mRNA expression of Cx43 and genes involved in inflammasome assembly and activity were determined in mouse brains. While SCI increased caspase-1 in the hippocampus. […] These studies indicate that boldine can reduce neuropathic pain following spinal cord injury (SCI) associated with reductions in brain and spinal cord of expression of pro-inflammatory cytokines and chemokines linked to pathological pain.

Ccl2 = experiment: Chemokine gene expression in spinal cord tissue of SCI mice; assay type: in vivo, mouse; conditions: C57B6 SCI animals at 14-dpi, vs vehicle; N=3, ANOVA p=0.091
Procedure: (§3) Additional studies were performed using tissues harvested from the mice for which behavioral testing data showing effects of boldine on Basso Mouse Scale and ladder rung walk test were collected. RNA-seq analysis was performed on spinal cord segments from SCI mice at 14-dpi treated with boldine or vehicle starting at 4-dpi (N=3 for each). Differentially expressed genes (DEGs) were clustered by their gene ontology (GO) and enrichment of GO terms was tested using a Fisher's exact test (GeneSCF v1.1-p2). Enriched DEGs were involved in pathways related to neutrophil activation and aggregation, inflammatory responses and astrocyte development.
(§4) Genes from a list of the top DEGs from the RNA-seq analysis were considered and tested for differences in gene expression of pro-inflammatory chemokines Ccl2 and Ccl3 between vehicle and boldine treated spinal cord tissues from C57B6 SCI animals at 14-dpi. Laminectomy-only (Sham) animals as were used as controls.

Ccl3 = experiment: as above; assay type: in vivo, mouse; conditions: C57B6 SCI animals at 14-dpi, vs vehicle; N=3, ANOVA p=0.085
Procedure: as §3, §4

[1] = system: neurite outgrowth marker GAP-43; experiment: Immunofluorescence staining of injured spinal cords; assay type: in vivo, mouse; conditions: injured spinal cord transverse sections, SCI mice at 14-dpi, vs vehicle
Procedure: Immunofluorescence staining was performed on injured spinal cords of vehicle and boldine treated SCI mice at 14-dpi. 30-micron transverse sections were used to evaluate differences in the labeling of the neurite outgrowth marker GAP-43.

IL-1β mRNA = experiment: Thalamus mRNA levels by qPCR after contusion SCI; assay type: in vivo, mouse
Procedure: as §1
(§5) FIGS. 3A-B are plots showing that boldine normalizes spinal cord injury (SCI)-induced elevation of IL-1B mRNA levels in the thalamus. mRNA levels were determined as described with reference to FIG. 2. (A) IL-1β; (B) CCL2. (*p<0.05 by ANOVA, N=3).
as §2

CCL2 mRNA = experiment: Thalamus mRNA levels by qPCR after contusion SCI; assay type: in vivo, mouse; conditions: compared to vehicle-treated animals after contusion SCI; FIG. 3 (thalamus); N=3
Procedure: as §1, §5, §2

[2] = system: C57BL6 mice, moderate contusion spinal cord injury (SCI) at T9-T10; experiment: Ladder rung walk test (LRWT) after moderate contusion SCI; assay type: in vivo, mouse; conditions: oral, twice daily starting at 4-dpi; at 13-dpi; vehicle-treated SCI mice 83%; N=5
Procedure: (§6) FIGS. 1A-C show the effects of boldine on locomotor functional recovery of C57BL6 mice after moderate spinal cord injury (SCI) at the interspace between thoracic vertebrae T9 and T10.
(§7) Function was determined by behavioral testing using both the Basso Mouse Scale (BMS) score (FIG. 1A) and the ladder rung walk test (LRWT) (FIG. 1B). While sham mice had normal BMS scores a few days after laminectomy, the BMS scores for contusion-SCI mice were much lower. […] (N=5; ANOVA *p<0.05 and **p<0.005 respectively).

[3] = system: C57BL6 mice, moderate contusion spinal cord injury (SCI) at T9-T10; experiment: Basso Mouse Scale (BMS) open-field locomotor function after moderate contusion SCI; assay type: in vivo; conditions: oral, twice daily starting at 4-dpi; at 13 dpi; vs vehicle-treated SCI mice; N=5
Procedure: as §6, §7

[4] = system: CCL2 mRNA in LPS astrocytes; experiment: mRNA expression after LPS-induced inflammatory response in astrocytic primary cell cultures; assay type: cell-based; conditions: compared to vehicle-treated LPS astrocytes
Procedure: To model effects of boldine on release of chemokines and other mediators, changes in mRNA expression after lipopolysaccharide (LPS)-induced inflammatory responses were analyzed using astrocytic primary cell cultures.

## COc1cc2c(cc1O)CC1c3c(cc(O)c(OC)c3-2)CCN1C (racemic) [boldine]
caspase-1 mRNA
  SCI-induced increase of caspase-1 mRNA in the hippocampus: appeared to be corrected
Ccl2
  Ccl2 gene expression in spinal cord tissue: apparent decrease which did not reach our threshold for significance
Ccl3
  Ccl3 gene expression in spinal cord tissue: apparent decrease which did not reach our threshold for significance
[1]
  GAP43 immunofluorescence: dramatically increased
IL-1β mRNA; compared to vehicle-treated animals after contusion SCI, FIG. 3 (thalamus), N=3
  reduction of mRNA levels of IL-10: 65.5%
IL-1β mRNA; contusion SCI mice, qPCR, N=3 (FIG. 3 legend)
  SCI-induced elevation of IL-1B mRNA levels in the thalamus: normalizes
CCL2 mRNA
  reduction of mRNA levels of CCL2: 47.2%
[2]
  LRWT incorrect steps: 13%
[3]
  BMS scores: significantly increased
[4]
  reduction of mRNA levels of CCL2: 38%
